Assay results published in patent US20240409585A1, “MACROCYCLIC IMMUNOMODULATORS” (priority 2021, published 2024).
Numbered stars: 1 amine (or outer) side, 2 acyl side, 3 side chain; on linkers, the order of the positions; unused ones are H or OH. Bridge positions count the residues as written; N and C are the ends. Square brackets hold non-standard residues; d marks the D form. Peptide text beside a SMILES is read from it. * marks the point of attachment. ξ: configuration not given here. X36 = O=C([C@H](Cc1ccc(-c2ccsc2)cc1)N[*:1])[*:2]; Bip = N[C@@H](Cc1ccc(-c2ccccc2)cc1)C(=O)O; Phe(3-Me) = Cc1cccc(C[C@H](N)C(=O)O)c1; NMeY = CN[C@@H](Cc1ccc(O)cc1)C(=O)O; Val(3-OH) = CC(C)(O)[C@H](N)C(=O)O; h4Pal = N[C@@H](CCc1ccncc1)C(=O)O; Ala(cPr) = N[C@@H](CC1CC1)C(=O)O; 4Pal = N[C@@H](Cc1ccncc1)C(=O)O; Cha = N[C@@H](CC1CCCCC1)C(=O)O; Thr(3ξ) = CC(O)[C@H](N)C(=O)O; Carboxymethyl = O=C(O)C*; NMeA = CN[C@@H](C)C(=O)O; Dab = NCC[C@H](N)C(=O)O; Aib = CC(C)(N)C(=O)O

Biological target: T1, PE-labeled human PD-L1-Ig binding to Jurkat cell line over-expressing human PD-1 (Jurkat-PD-1) (Homo sapiens, UniProt Q15116)
T1 construct: expressed in transfected cells; host or cells: Jurkat
Assay: Jurkat-PD-1 Cell Binding High-Content Screening Assay (CBA): Method 1
Conditions: Jurkat-hPD-1 cells, PE-labeled PD-L1-Ig 20 nM final; read-out: Jurkat HPDL1 PD1 IC50 (uM) (Method 1)

T1 sequence (Q15116 25-288): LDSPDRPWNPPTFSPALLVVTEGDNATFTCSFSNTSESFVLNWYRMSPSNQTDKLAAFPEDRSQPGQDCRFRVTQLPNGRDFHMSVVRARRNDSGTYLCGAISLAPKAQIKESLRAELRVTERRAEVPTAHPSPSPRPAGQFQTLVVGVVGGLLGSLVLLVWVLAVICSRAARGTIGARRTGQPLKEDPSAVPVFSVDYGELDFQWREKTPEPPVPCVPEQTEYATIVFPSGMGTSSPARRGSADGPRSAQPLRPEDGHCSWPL

Cc1cccc(C[C@@H]2NC(=O)[C@H](CC(=O)O)NC(=O)[C@H](Cc3ccc(OCC(=O)O)cc3)NC(=O)[C@H](CC(N)=O)NC(=O)CSC[C@@H](C(N)=O)NC(=O)[C@H](CCC(=O)O)NC(=O)[C@H](C(C)C)NC(=O)[C@H](CC3CCCCC3)NC(=O)[C@H](CCN)NC(=O)[C@@H](CC(C)C)NC(=O)[C@H](C)N(C)C(=O)[C@H](Cc3ccc(OCC(=O)O)cc3)NC(=O)[C@H](Cc3ccc(-c4ccccc4)cc3)NC(=O)[C@H](Cc3ccc(OCC(=O)O)cc3)NC2=O)c1 [Compound 1667] ({CH2CO}-NY(Carboxymethyl)D[Phe(3-Me)]Y(Carboxymethyl)[Bip]Y(Carboxymethyl)[NMeA][dL][Dab][Cha]VEC-NH2; thioether N-14) and Cc1cccc(C[C@@H]2NC(=O)[C@H](CC(=O)O)NC(=O)[C@H](Cc3ccc(OCC(=O)O)cc3)NC(=O)[C@H]([C@@H](C)O)NC(=O)CSC[C@@H](C(N)=O)NC(=O)[C@H]([C@@H](C)O)NC(=O)[C@H](C(C)C)NC(=O)[C@H](CC3CCCCC3)NC(=O)[C@H](CC(N)=O)NC(=O)[C@@H](CC(C)C)NC(=O)[C@H](C)N(C)C(=O)[C@H](Cc3ccc(OCC(=O)O)cc3)NC(=O)[C@H](Cc3ccc(-c4ccccc4)cc3)NC(=O)[C@H](Cc3ccc(OCC(=O)O)cc3)NC2=O)c1 [Compound 1678] ({CH2CO}-TY(Carboxymethyl)D[Phe(3-Me)]Y(Carboxymethyl)[Bip]Y(Carboxymethyl)[NMeA][dL]N[Cha]VTC-NH2; thioether N-14) are within 1.5-fold of each other in IC50: 0.11 µM for the first, 0.15 µM for the second.

CC(C)C[C@@H]1NC(=O)[C@H](Cc2c[nH]c3ccccc23)NC(=O)[C@H](CC(=O)O)NC(=O)[C@H](Cc2ccc(O)cc2)NC(=O)[C@H](Cc2ccccc2)NC(=O)CSC[C@@H](C(=O)N[C@@H](C)C(N)=O)NC(=O)[C@H](CO)NC(=O)[C@H](C(C)C)NC(=O)[C@H](CC(C)C)NC(=O)[C@H](CC(N)=O)NC(=O)[C@@H](CC(C)C)NC(=O)[C@H](C)N(C)C(=O)[C@H](CCCNC(=N)N)NC(=O)[C@H](Cc2ccc(-c3ccccc3)cc2)NC1=O [Compound 1775] ({CH2CO}-FYDWL[Bip]R[NMeA][dL]NLVSCA-NH2; thioether N-14) and CC(C)C[C@@H]1NC(=O)[C@H](Cc2c[nH]c3ccccc23)NC(=O)[C@H](CC(=O)O)NC(=O)[C@H](Cc2ccc(O)cc2)NC(=O)[C@H](Cc2ccccc2)NC(=O)CSC[C@@H](C(=O)N[C@@H](C)C(N)=O)NC(=O)[C@H](CO)NC(=O)[C@H](C(C)C)NC(=O)[C@H](CC(C)C)NC(=O)[C@H](CC(N)=O)NC(=O)[C@@H](C)NC(=O)[C@H](C)N(C)C(=O)[C@H](CCC(=O)O)NC(=O)[C@H](Cc2ccc(-c3ccccc3)cc2)NC1=O [Compound 1768] ({CH2CO}-FYDWL[Bip]E[NMeA][dA]NLVSCA-NH2; thioether N-14) are within 1.5-fold of each other in IC50: 0.05 µM for the first, 0.04 µM for the second.

First: CC(C)C[C@@H]1NC(=O)[C@H](Cc2c[nH]c3ccccc23)NC(=O)[C@H](CC(=O)O)NC(=O)[C@H](Cc2ccc(O)cc2)NC(=O)[C@H](Cc2ccccc2)NC(=O)CSC[C@@H](C(=O)N[C@@H](C)C(N)=O)NC(=O)[C@H](CO)NC(=O)[C@H](C(C)C)NC(=O)[C@H](CC(C)C)NC(=O)[C@H](CCC(=O)O)NC(=O)[C@@H](C)NC(=O)[C@H](C)N(C)C(=O)[C@H](CCC(=O)O)NC(=O)[C@H](Cc2ccc(-c3ccccc3)cc2)NC1=O [Compound 1792] ({CH2CO}-FYDWL[Bip]E[NMeA][dA]ELVSCA-NH2; thioether N-14)
Second: CC(C)C[C@@H]1NC(=O)[C@H](Cc2c[nH]c3ccccc23)NC(=O)[C@H](CC(=O)O)NC(=O)[C@H](Cc2ccc(OCC(=O)O)cc2)NC(=O)[C@H](Cc2ccncc2)NC(=O)CSC[C@@H](C(=O)N[C@@H](C)C(N)=O)NC(=O)[C@H](CO)NC(=O)[C@H](C(C)C)NC(=O)[C@H](CC(C)C)NC(=O)[C@H](CC(N)=O)NC(=O)[C@@H](CC(C)C)NC(=O)[C@H](C)N(C)C(=O)[C@H](C(C)C)NC(=O)[C@H](Cc2ccc(-c3ccccc3)cc2)NC1=O [Compound 1592] ({CH2CO}-[4Pal]Y(Carboxymethyl)DWL[Bip]V[NMeA][dL]NLVSCA-NH2; thioether N-14)
The IC50 of the first is 13-fold higher: 0.13 µM for the first, 0.01 µM for the second.

Going from CC(C)C[C@@H]1NC(=O)[C@H](CCCNC(=N)N)NC(=O)C(C)(C)NC(=O)[C@H](C)N(C)C(=O)[C@H](CCCNC(=N)N)NC(=O)[C@H](Cc2ccc(-c3ccccc3)cc2)NC(=O)[C@H](C(C)C)NC(=O)[C@H](Cc2c[nH]c3ccccc23)NC(=O)[C@H](CC(=O)O)NC(=O)[C@H](Cc2ccc(O)cc2)NC(=O)[C@H](Cc2ccccc2)NC(=O)CSC[C@@H](C(=O)NCC(N)=O)NC(=O)[C@H](CO)NC(=O)[C@H](C(C)C)NC1=O [Compound 1013] ({CH2CO}-FYDWV[Bip]R[NMeA][Aib]RLVSCG-NH2; thioether N-14) to CC(C)C[C@H]1NC(=O)[C@H](C)N(C)C(=O)[C@H](CCCNC(=N)N)NC(=O)[C@H](Cc2ccc(-c3ccccc3)cc2)NC(=O)[C@H](C(C)C)NC(=O)[C@H](Cc2c[nH]c3ccccc23)NC(=O)[C@H](CC(=O)O)NC(=O)[C@H](Cc2ccc(O)cc2)NC(=O)[C@H](Cc2ccccc2)NC(=O)CSC[C@@H](C(=O)N[C@@H](C)C(N)=O)NC(=O)[C@H]([C@@H](C)O)NC(=O)[C@H](C(C)C)NC(=O)[C@H](CC2CC2)NC(=O)[C@H](CCCNC(=N)N)NC1=O [Compound 1111] ({CH2CO}-FYDWV[Bip]R[NMeA][dL]R[Ala(cPr)]VTCA-NH2; thioether N-14), the IC50 falls from 0.16 µM to 0.07 µM (2.3-fold). The second is the more potent here.

CC(C)C[C@@H]1NC(=O)[C@H](Cc2c[nH]c3ccccc23)NC(=O)[C@H](CC(=O)O)NC(=O)[C@H](Cc2ccc(C(=O)O)cc2)NC(=O)[C@H](Cc2ccc(OCC(=O)O)cc2)NC(=O)CSC[C@@H](C(=O)NCC(N)=O)NC[C@H](CO)NC(=O)[C@H](C(C)C)NC(=O)[C@H](CC2CCCCC2)NC(=O)[C@H](CC(N)=O)NC(=O)[C@@H](CC(C)C)NC(=O)[C@H](C)N(C)C(=O)[C@H](C(C)C)NC(=O)[C@H](Cc2ccc(-c3ccccc3)cc2)NC1=O [Compound 1623] and CC(=O)NCCCC[C@@H]1NC(=O)[C@H](Cc2ccc(-c3ccccc3)cc2)NC(=O)[C@H](Cc2ccc(O)cc2)NC(=O)[C@H](Cc2c[nH]c3ccccc23)NC(=O)[C@H](CC(=O)O)NC(=O)[C@H](Cc2ccc(OCC(=O)O)cc2)NC(=O)[C@H](C(C)O)NC(=O)CSC[C@@H](C(N)=O)NC(=O)[C@H](C(C)O)NC(=O)[C@H](C(C)C)NC(=O)[C@H](CC2CCCCC2)NC(=O)[C@H](CCN)NC(=O)[C@@H](CC(C)C)NC(=O)[C@H](C)N(C)C1=O (stereo partly drawn) [Compound 2254] ({CH2CO}-[Thr(3ξ)]Y(Carboxymethyl)DWY[Bip]K(Ac)[NMeA][dL][Dab][Cha]V[Thr(3ξ)]C-NH2; thioether N-14) are within 1.5-fold of each other in IC50: 0.19 µM for the first, 0.16 µM for the second.

Going from Cc1cccc(C[C@@H]2NC(=O)[C@H](CC(=O)O)NC(=O)[C@H](Cc3ccc(OCC(=O)O)cc3)NC(=O)[C@H](C(C)O)NC(=O)CSC[C@@H](C(=O)N[C@H](CC(N)=O)C(N)=O)NC(=O)[C@H](CO)NC(=O)[C@H](C(C)(C)O)NC(=O)[C@H](CC3CCCCC3)NC(=O)[C@H](CCN)NC(=O)[C@@H](CC(C)C)NC(=O)[C@H](C)N(C)C(=O)[C@H](Cc3ccc(O)cc3)NC(=O)[C@H](Cc3ccc(-c4ccccc4)cc3)NC(=O)[C@H](Cc3ccc(O)cc3)NC2=O)c1 (stereo partly drawn) [Compound 2142] ({CH2CO}-[Thr(3ξ)]Y(Carboxymethyl)D[Phe(3-Me)]Y[Bip]Y[NMeA][dL][Dab][Cha][Val(3-OH)]SC[dN]-NH2; thioether N-14) to CC(C)C[C@@H]1NC(=O)[C@H](CCN)NC(=O)[C@@H](CC(C)C)NC(=O)[C@H](Cc2ccc(O)cc2)N(C)C(=O)[C@H](C(C)C)NC(=O)[C@H](Cc2ccc(-c3ccccc3)cc2)NC(=O)[C@H](C(C)C)NC(=O)[C@H](Cc2c[nH]c3ccccc23)NC(=O)[C@H](CC(=O)O)NC(=O)[C@H](Cc2ccc(O)cc2)NC(=O)[C@H](CC(N)=O)NC(=O)CSC[C@@H](C(=O)N[C@@H](C)C(N)=O)NC(=O)[C@H]([C@@H](C)O)NC(=O)[C@H](C(C)C)NC1=O [Compound 1364] ({CH2CO}-NYDWV[Bip]V[NMeY][dL][Dab]LVTCA-NH2; thioether N-14), the IC50 falls from 0.18 µM to 0.01 µM (18-fold).

Going from CC(C)C[C@@H]1NC(=O)[C@H](CCN)NC(=O)[C@@H](CC(C)C)NC(=O)[C@H](C)N(C)C(=O)[C@H](CCCNC(=N)N)NC(=O)[C@H](Cc2ccc(-c3ccccc3)cc2)NC(=O)[C@H](C(C)C)NC(=O)[C@H](Cc2c[nH]c3ccccc23)NC(=O)[C@H](CC(=O)O)NC(=O)[C@H](Cc2ccc(O)cc2)NC(=O)[C@H](CC(N)=O)NC(=O)CSC[C@@H](C(=O)N[C@@H](C)C(N)=O)NC(=O)[C@H]([C@@H](C)O)NC(=O)[C@H](C(C)C)NC1=O [Compound 1038] ({CH2CO}-NYDWV[Bip]R[NMeA][dL][Dab]LVTCA-NH2; thioether N-14) to CC(C)C[C@@H]1NC(=O)[C@H](CCN)NC(=O)[C@@H](CC(C)C)NC(=O)[C@H](C)N(C)C(=O)[C@H](CCCNC(=N)N)NC(=O)[C@H](Cc2ccc(-c3ccsc3)cc2)NC(=O)[C@H](C(C)C)NC(=O)[C@H](Cc2c[nH]c3ccccc23)NC(=O)[C@H](CC(=O)O)NC(=O)[C@H](Cc2ccc(O)cc2)NC(=O)[C@H](CC(N)=O)NC(=O)CSC[C@@H](C(=O)N[C@@H](C)C(N)=O)NC(=O)[C@H]([C@@H](C)O)NC(=O)[C@H](C(C)C)NC1=O [Compound 1224] ({CH2CO}-NYDWV[X36]R[NMeA][dL][Dab]LVTCA-NH2; thioether N-14), the IC50 falls from 0.13 µM to 0.04 µM (3.2-fold). The second is the more potent here.

In the case of CC(C)C[C@@H]1NC(=O)[C@H](CCCNC(=N)N)NC(=O)[C@@H](CC(C)C)NC(=O)[C@H](C)N(C)C(=O)[C@H](CCCNC(=N)N)NC(=O)[C@H](Cc2ccc(-c3ccccc3)cc2)NC(=O)[C@H](C(C)C)NC(=O)[C@H](Cc2c[nH]c3ccccc23)NC(=O)[C@H](CC(=O)O)NC(=O)[C@H](CCc2ccncc2)NC(=O)[C@H](Cc2ccccc2)NC(=O)CSC[C@@H](C(=O)N[C@@H](C)C(N)=O)NC(=O)[C@H]([C@@H](C)O)NC(=O)[C@H](C(C)C)NC1=O [Compound 1084] ({CH2CO}-F[h4Pal]DWV[Bip]R[NMeA][dL]RLVTCA-NH2; thioether N-14), the IC50 is reported as 0.09 µM.
